For series [1] the following is noted: cited from earlier work.
The conditions of series [2]: cited from earlier work. The source holds these as a separate data set.
Series [3] is classed as in vivo, male Sprague Dawley rats. The conditions noted are these: DIO rats.
Series [4] in a line: Phase 2 part 2: pharmacodynamics. It counts as in vivo, human. As to conditions: part 2b.
Series [5] in a line: DIO rats: body weight during daily s.c. semaglutide. It counts as in vivo, male Sprague Dawley rats. As to conditions: n = 9.

We go through two substances from article PMC12304869 (Obesity (Silver Spring, Md.), 2025).

Turning to “PYY3‐36: active, Y2‐selective cleaved form of the hormone peptide YY”, in series [1] (intranasal, 200‐μg dose, participants with obesity, placebo −2.8 kg), the “weight loss after 12 weeks of treatment” value is -3.7 kg. The “treatment discontinuation due to nausea and vomiting” value in series [1] (phase 1, intranasal 600 μg) is reported as “a majority of participants receiving 600 μg discontinued treatment”. Further, the “half‐life (t1/2)” value in series [2] is “roughly 10 min”.

On to semaglutide, for which, in series [3] (vehicle + 30 nmol/kg semaglutide), the “cumulative food intake from day 1 to 26, mean (SD)” value is 389 (53) g. In addition, in series [3] (vehicle + 30 nmol/kg semaglutide daily s.c., n = 9), the “mean body weight change after 26 days, mean (SD)” value was −12.5% (3.4%). In series [1] (semaglutide 2.4 mg alone, over 68 weeks), the weight loss is given as 14.9%. For the same substance, the “change in body weight from baseline (week 32) to EOT (week 48)” value in series [4] (placebo + semaglutide 2.4 mg weekly, ANCOVA estimate, FAS) is listed as −3.1%. The “change in body weight from baseline to EOT” value in series [4] (placebo + semaglutide 2.4 mg) was -2.2 kg. In addition, the “body weight loss after 26 days of treatment, mean (SD)” value in series [5] (semaglutide 3 nmol/kg daily s.c.) was −8.8% (2.9%); in series [5] (semaglutide 30 nmol/kg daily s.c.), −14.2% (3.0%); in series [5] (semaglutide 100 nmol/kg daily s.c.) it was −17.4% (5.7%).
